Experimental data from patent US20120225862A1, “HETEROARYL BENZAMIDES, COMPOSITIONS AND METHODS OF USE” (AUCKLAND UNIVSERVICES LIMITED, priority 2009, published 2012).

Columns and labels:
cSRC = target: T1, cSRC (Homo sapiens, UniProt P12931); assay: In vitro kinase activity (Millipore KinaseProfiler): cSRC; format: biochemical; details: no head or unit printed
T1 construct: purchased Millipore (KinaseProfiler service)
Procedure: (§1) All cells were grown in DMEM+10% FCS. ACHN and ACHN shVHL were a kind gift from George V. Thomas (UCLA). HIF overexpressing clones were described previously. Transfection of RNA oligos were performed with DnarmaFECT Reagent 1 (Dharmcon), according to manufacturer's directions. ON-TARGETplus SMART pools against HIF-1β/ARNT were purchased from Dharmacon. Glut1 was detected with anti-GLUT1 antibody from NeoMarkers/LabVision/Fisher. Pyruvate/lactate levels and hexokinase activity were both measured by fluorometric assay (BioVision and Sigma-Aldrich, respectively). ATP levels were measured by bioluminescence assay (ATP Determination Kit from Molecular Probes/Invitrogen). In vitro kinase activities were performed by Millipore KinaseProfiler. Affi-Gel 10 (BioRad) activated affinity media was coupled to analogs to generate immobilized affinity linkers.
(§2) We next wanted to investigate the differential glucose uptake between RCCs with and without VHL treated with compound 47 that subsequently lead to the selective death of VHL-deficient cells. We first examined the message levels of the two main glucose transporters, GLUT1 and GLUT2 by quantitative real-time PCR. GLUT1 is an inducible, high-affinity glucose transporter, while GLUT2 is the glucose transporter responsible for basal glucose uptake. […] Cells deficient in VHL had very low levels of GLUT2 that could barely be detected (FIG. 3J). […]

MLK1 = target: T2, MLK1 (Homo sapiens, UniProt P80192); assay: In vitro kinase activity (Millipore KinaseProfiler): MLK1; format: biochemical; details: no head or unit printed
T2 construct: purchased Millipore (KinaseProfiler service)
Procedure: as §1, §2

IGF-1R = target: T3, IGF-1R (Homo sapiens, UniProt P08069); assay: In vitro kinase activity (Millipore KinaseProfiler): IGF-1R; format: biochemical; details: no head or unit printed
T3 construct: purchased Millipore (KinaseProfiler service)
Procedure: as §1, §2

DYRK2 = target: T4, DYRK2 (Homo sapiens, UniProt Q92630); assay: In vitro kinase activity (Millipore KinaseProfiler): DYRK2; format: biochemical; details: no head or unit printed
T4 construct: purchased Millipore (KinaseProfiler service)
Procedure: as §1, §2

SAPK2a = target: T5, SAPK2a (Homo sapiens, UniProt Q16539); assay: In vitro kinase activity (Millipore KinaseProfiler): SAPK2a; format: biochemical; details: no head or unit printed
T5 construct: purchased Millipore (KinaseProfiler service)
Procedure: as §1, §2

JNK1α1 = target: T6, JNK1α1 (Homo sapiens, UniProt P45983); assay: In vitro kinase activity (Millipore KinaseProfiler): JNK1α1; format: biochemical; details: no head or unit printed
T6 construct: purchased Millipore (KinaseProfiler service)
Procedure: as §1, §2

Syk = target: T7, Syk (Homo sapiens, UniProt P43405); assay: In vitro kinase activity (Millipore KinaseProfiler): Syk; format: biochemical; details: no head or unit printed
T7 construct: purchased Millipore (KinaseProfiler service)
Procedure: as §1, §2

ACHN shVHL = assay: Clonogenic survival, ACHN with shRNA to VHL; format: cell-based, human; details: FIG. 2E
RCC4 = assay: ATP levels (bioluminescence), VHL-deficient cells; format: cell-based, human
Procedure: as §1
We next investigated how a decrease in glycolysis could lead to selective necrotic cell death. One possibility is that the reduction in glycolysis lowers the availability of pyruvate, the essential precursor for the generation of acetyl-CoA. […] We therefore examined oxygen consumption as a marker of oxidative phosphorylation and ATP production in treated and untreated cells. […] However, the decrease in glucose uptake in response to treatment with compound 47 in VHL-deficient cells results in a 75% decrease in ATP levels (FIG. 3G). […]

CSK = target: T8, CSK (Homo sapiens, UniProt P41240); assay: In vitro kinase activity (Millipore KinaseProfiler): CSK; format: biochemical; details: no head or unit printed
T8 construct: purchased Millipore (KinaseProfiler service)
Procedure: as §1, §2

MEK1 = target: T9, MEK1 (Homo sapiens, UniProt Q02750); assay: In vitro kinase activity (Millipore KinaseProfiler): MEK1; format: biochemical; details: no head or unit printed
T9 construct: purchased Millipore (KinaseProfiler service)
Procedure: as §1, §2

RCC4/VHL = assay: Clonogenic survival, RCC4/VHL; format: cell-based, human; details: RCC4/VHL (wild-type VHL), 5 μM, 10 days
Procedure: Three hundred cells were plated into 60-mm tissue culture dishes in DMEM. The next day, cells were treated with vehicle or drug and were further incubated for an additional 10 days. After 10 days, the media was removed and colonies were fixed and stained in 95% ethanol and 0.1% crystal violet for 15 minutes. The stain was removed and plates were washed in deionized water. Colonies were quantified. All conditions were measured in triplicate and all experiments were performed in triplicate.
For 2,3-bis[2-methoxy-4-nitro-5-sulfophenyl]-2H-tetrazolium-5-carboxanilide (XTT) assays, five thousand cells were plated in 96-well plates. The next day, vehicle (DMSO) or drug was added by serial dilution. Four days later, media were aspirated, XTT solution (0.3 mg/ml of XTT (Sigma), 2.65 mg/ml N-methyl dibenxopyrazine methyl sulfate (Simga) in phenol red-free media) was added, and the plates were incubated at 37° C. for 1-2 hours. Metabolism of XTT was quantified by measuring the absorbance at 450 nm. IC50s were calculated using linear interpolation. For clonogenic survival assays, three hundred cells were plated per 60 mm tissue culture dish. The cells were allowed to attach overnight and then treated with vehicle or drug for 14 days. […] All conditions were measured in triplicate and each experiment was done in duplicate or triplicate. […] Live and dead cells were counted on a hematocytometer.

IR = target: T10, IR (Homo sapiens, UniProt P06213); assay: In vitro kinase activity (Millipore KinaseProfiler): IR; format: biochemical; details: no head or unit printed
T10 construct: purchased Millipore (KinaseProfiler service)
Procedure: as §1, §2

TrkA = target: T11, TrkA (Homo sapiens, UniProt P04629); assay: In vitro kinase activity (Millipore KinaseProfiler): TrkA; format: biochemical; details: no head or unit printed
T11 construct: purchased Millipore (KinaseProfiler service)
Procedure: as §1, §2

T8 sequence (P41240 whole entry, species assumed): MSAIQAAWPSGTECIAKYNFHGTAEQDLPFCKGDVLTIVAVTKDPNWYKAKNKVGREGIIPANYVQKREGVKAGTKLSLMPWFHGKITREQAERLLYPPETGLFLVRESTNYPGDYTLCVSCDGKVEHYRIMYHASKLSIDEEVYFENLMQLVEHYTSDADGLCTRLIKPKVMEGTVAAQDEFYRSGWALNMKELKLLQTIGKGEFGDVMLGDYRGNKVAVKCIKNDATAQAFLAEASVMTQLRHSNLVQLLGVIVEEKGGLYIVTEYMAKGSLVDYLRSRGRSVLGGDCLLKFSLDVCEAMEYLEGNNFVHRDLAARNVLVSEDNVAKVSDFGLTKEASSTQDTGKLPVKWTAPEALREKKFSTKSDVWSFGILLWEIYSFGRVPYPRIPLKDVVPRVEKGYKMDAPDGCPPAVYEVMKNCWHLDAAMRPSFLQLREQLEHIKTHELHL
T1 sequence (P12931 whole entry, species assumed): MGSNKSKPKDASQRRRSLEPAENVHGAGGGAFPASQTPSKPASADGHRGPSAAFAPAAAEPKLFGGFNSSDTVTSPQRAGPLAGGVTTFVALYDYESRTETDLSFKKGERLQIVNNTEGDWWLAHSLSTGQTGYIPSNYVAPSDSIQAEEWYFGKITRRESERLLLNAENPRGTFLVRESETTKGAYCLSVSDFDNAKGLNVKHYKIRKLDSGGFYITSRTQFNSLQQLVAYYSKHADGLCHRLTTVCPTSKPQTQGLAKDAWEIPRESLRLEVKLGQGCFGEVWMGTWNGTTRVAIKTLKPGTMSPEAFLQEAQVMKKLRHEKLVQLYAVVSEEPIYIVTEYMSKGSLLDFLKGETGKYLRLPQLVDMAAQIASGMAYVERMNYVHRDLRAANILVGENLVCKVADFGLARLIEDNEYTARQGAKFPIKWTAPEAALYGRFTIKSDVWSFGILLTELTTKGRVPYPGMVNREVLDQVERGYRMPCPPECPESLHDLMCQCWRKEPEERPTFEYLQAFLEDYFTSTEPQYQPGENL
T3 sequence (P08069 31-1367, species assumed): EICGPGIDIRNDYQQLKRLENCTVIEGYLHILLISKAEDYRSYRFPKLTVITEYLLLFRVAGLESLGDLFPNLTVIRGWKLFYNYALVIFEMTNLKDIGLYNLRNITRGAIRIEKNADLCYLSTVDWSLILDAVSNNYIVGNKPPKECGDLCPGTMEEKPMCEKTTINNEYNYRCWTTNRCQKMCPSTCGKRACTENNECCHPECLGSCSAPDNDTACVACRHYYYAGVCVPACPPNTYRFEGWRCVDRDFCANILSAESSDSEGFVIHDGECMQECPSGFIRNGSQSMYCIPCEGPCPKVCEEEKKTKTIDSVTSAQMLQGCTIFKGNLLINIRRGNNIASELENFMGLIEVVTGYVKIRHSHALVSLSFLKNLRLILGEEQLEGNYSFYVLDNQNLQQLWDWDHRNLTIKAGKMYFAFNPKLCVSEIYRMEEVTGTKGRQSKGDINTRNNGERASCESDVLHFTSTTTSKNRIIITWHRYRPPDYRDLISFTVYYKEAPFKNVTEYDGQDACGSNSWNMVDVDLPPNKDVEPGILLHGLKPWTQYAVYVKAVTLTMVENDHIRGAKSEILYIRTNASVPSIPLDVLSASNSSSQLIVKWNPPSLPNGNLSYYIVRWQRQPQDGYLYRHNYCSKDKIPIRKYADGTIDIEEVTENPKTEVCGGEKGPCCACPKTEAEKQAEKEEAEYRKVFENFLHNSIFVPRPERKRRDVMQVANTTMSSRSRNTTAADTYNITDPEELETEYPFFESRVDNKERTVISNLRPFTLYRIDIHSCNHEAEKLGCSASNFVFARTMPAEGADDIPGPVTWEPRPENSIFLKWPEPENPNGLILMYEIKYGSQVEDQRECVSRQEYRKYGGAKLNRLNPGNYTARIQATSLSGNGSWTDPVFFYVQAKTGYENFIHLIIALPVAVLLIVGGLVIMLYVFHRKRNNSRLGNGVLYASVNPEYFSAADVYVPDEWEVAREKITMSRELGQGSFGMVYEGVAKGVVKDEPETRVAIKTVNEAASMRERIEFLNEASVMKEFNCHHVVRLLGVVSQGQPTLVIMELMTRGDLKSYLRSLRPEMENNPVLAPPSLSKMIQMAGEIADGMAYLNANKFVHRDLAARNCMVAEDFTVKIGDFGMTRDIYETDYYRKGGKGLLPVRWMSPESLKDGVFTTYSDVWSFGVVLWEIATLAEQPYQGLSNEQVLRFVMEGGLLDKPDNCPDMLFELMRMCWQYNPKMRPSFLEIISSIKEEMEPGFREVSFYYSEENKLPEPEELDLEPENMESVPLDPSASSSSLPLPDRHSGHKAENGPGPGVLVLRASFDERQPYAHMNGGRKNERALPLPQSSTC
T5 sequence (Q16539 whole entry): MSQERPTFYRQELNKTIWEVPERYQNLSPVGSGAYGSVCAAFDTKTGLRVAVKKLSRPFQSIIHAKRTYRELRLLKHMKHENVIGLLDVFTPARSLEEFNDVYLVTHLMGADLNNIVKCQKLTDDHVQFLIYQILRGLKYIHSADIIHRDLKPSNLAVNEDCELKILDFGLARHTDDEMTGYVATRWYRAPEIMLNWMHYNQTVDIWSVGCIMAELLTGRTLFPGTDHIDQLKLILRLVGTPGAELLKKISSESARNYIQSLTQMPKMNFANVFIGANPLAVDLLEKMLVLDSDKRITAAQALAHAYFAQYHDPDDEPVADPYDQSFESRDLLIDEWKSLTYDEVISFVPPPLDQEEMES
T11 sequence (P04629 33-796): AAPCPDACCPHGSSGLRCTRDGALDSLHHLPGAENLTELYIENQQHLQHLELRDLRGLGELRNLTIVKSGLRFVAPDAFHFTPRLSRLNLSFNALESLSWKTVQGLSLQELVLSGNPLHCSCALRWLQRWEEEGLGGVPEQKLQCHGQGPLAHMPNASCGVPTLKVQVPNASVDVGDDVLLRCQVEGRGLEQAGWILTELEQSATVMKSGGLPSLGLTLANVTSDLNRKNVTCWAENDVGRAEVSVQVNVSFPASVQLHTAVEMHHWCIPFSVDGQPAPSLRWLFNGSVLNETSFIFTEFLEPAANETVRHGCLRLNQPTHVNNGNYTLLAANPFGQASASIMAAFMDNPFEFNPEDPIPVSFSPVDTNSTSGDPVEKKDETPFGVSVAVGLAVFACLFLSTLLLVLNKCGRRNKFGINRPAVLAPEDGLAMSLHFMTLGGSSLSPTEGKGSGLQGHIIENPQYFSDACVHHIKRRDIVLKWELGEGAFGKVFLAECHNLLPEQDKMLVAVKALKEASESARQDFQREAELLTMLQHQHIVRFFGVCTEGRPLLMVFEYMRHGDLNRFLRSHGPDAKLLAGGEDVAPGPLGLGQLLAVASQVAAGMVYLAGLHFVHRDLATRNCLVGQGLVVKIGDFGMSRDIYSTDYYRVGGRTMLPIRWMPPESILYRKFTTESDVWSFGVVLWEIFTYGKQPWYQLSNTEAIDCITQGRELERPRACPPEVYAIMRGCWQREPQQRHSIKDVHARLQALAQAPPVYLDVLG
T6 sequence (P45983 1-384 isoform P45983-2, species assumed): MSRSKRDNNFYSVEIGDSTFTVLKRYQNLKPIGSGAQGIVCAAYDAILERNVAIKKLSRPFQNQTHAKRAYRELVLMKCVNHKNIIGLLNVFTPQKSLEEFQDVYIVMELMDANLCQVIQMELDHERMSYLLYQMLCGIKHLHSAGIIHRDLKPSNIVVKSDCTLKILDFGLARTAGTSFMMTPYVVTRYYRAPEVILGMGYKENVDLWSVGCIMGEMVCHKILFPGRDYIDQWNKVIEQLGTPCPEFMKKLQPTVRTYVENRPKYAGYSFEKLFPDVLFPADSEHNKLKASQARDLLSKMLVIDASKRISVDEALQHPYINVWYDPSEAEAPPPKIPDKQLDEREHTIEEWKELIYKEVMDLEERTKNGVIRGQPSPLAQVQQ
T4 sequence (Q92630 whole entry, species assumed): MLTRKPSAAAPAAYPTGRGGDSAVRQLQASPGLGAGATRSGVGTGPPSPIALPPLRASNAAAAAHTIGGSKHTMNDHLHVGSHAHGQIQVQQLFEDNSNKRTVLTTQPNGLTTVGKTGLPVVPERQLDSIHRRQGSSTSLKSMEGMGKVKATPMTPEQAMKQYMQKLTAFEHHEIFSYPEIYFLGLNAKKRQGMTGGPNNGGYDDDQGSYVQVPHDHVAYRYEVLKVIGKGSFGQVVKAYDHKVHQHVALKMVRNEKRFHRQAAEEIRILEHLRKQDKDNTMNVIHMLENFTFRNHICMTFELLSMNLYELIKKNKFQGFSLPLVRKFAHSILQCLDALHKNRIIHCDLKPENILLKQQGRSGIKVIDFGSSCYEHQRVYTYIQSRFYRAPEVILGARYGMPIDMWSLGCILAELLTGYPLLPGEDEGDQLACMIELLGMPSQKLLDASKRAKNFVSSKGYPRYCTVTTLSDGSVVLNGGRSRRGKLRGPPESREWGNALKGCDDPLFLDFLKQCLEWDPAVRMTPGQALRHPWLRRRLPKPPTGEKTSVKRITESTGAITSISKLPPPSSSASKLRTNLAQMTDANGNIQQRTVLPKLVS
T9 sequence (Q02750 whole entry, species assumed): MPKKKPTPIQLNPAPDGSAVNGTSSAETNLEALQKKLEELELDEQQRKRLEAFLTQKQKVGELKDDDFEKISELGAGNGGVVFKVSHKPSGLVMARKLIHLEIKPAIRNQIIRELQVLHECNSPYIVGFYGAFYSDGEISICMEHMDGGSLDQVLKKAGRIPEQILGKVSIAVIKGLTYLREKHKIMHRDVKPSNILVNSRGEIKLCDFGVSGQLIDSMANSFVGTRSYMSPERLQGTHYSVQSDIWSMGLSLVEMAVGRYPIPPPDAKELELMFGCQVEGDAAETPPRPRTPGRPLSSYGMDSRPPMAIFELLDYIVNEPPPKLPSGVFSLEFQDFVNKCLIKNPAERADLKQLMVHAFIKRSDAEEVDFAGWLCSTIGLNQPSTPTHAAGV

## CC(C)(C)c1ccc(S(=O)(=O)NCc2ccc(C(=O)Nc3cccnc3)cc2)cc1 [Example 38, 4-((4-tert-Butylphenylsulfonamido)methyl)-N-(pyridin-3-yl)benzamide]
cSRC
  cSRC kinase activity: 104%
MLK1
  MLK1 kinase activity: 97%
IGF-1R
  IGF-1R kinase activity: 108
DYRK2
  DYRK2 kinase activity: 94%
SAPK2a
  SAPK2a kinase activity: 127
JNK1α1
  JNK1α1 kinase activity: 101
Syk
  Syk kinase activity: 94
ACHN shVHL
  sensitivity of ACHN cells with VHL silenced by shRNA (clonogenic survival): sensitive
RCC4; 5 μM, FIG. 3G
  decrease in ATP levels in VHL-deficient cells: 75%
RCC4; FIG. 3H
  concentration dependence of inhibition of ATP production: dose-dependent
CSK
  CSK kinase activity: 99
MEK1
  MEK1 kinase activity: 99
RCC4/VHL
  clonogenic survival of RCC4/VHL: relatively unaffected
IR
  IR kinase activity: 121%
TrkA
  TrkA kinase activity: 124
